≈ marks a conversion by molar mass, not a printed value.
Test system: Streptococcus pneumoniae
Assay: Antibacterial activity against telithromycin-susceptible Streptococcus pneumoniae
Assay type: functional

MIC90: 0.12 µg/mL (≈ 0.148 µM)
Compound: CC[C@H]1OC(=O)[C@H](C)C(=O)[C@H](C)[C@@H](O[C@@H]2O[C@H](C)C[C@H](N(C)C)[C@H]2O)[C@](C)(OC)C[C@@H](C)C(=O)[C@H](C)[C@H]2N(CCCCn3cnc(-c4cccnc4)c3)C(=O)O[C@]12C [TELITHROMYCIN]
